According to patent US8278072B1, “Method for synthesis of sialylated products using reversible sialylation” (Health Research, Inc., priority 2007, dated 2012):

Target: T1, ST3Gal-II (Rattus norvegicus, UniProt Q11205)
T1 construct: purchased Calbiochem
T1 sequence (Q11205 1-350): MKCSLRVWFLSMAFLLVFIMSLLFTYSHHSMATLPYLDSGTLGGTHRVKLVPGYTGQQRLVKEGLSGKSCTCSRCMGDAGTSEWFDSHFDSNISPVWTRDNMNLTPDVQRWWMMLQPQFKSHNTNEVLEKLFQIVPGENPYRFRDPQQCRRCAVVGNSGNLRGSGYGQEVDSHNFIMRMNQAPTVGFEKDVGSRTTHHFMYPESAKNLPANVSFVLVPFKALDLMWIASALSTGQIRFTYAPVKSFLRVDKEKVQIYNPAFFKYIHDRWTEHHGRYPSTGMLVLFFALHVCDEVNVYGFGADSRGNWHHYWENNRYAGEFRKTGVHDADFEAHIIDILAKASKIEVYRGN
Assay: Reverse sialylation equilibrium constant (Keq) and 5′-CMP dose dependence
Type: biochemical
Details: donor 0.15 mM [2], 0.15 mU ST3Gal-II, 2 hours; read-out: concentration of 5′-CMP that mediated half-maximal transfer of [9-3H]NeuAc
Procedure: FIG. 2. Equilibrium constant. a. Reversible sialyltransferase activity at increasing concentration of 5′-CMP. 0.15 mM of donor [9-^3H]NeuAcα2,3Galβ1,3(4-FGlcNAcβ1,6)GalNAcα-O-Bn [9-^3H[2]] was incubated with varying concentrations of 5′-CMP and 0.15 mU ST3Gal-II under conditions described in FIG. 1 for 2 hours. The consumption of the [9-^3H]NeuAc benzyl glycoside donor was measured by subjecting the incubation mixture to Sep-Pak C18 fractionation, which binds the donor and not CMP-[9-^3H]NeuAc. The reaction proceeded to ½ the maximum extent at 80 μM 5′-CMP. b. Equilibrium constant Keq (=0.35) calculated for data in panel a. c. Varying concentrations of 5′-CMP was sialylated with ST3Gal-II (2.0 mU) using either 0.15 mM (panel c) or 1.5 mM (not shown) sialyl donor [9-^3H]NeuAcα2,3Galβ1,3GalNAcβ1,3Galα-O-Me [9-^3H[3]] for 4 hours. The product CMP-[9-^3H]NeuAc and the unused [9-^3H[3]] were separated and quantitated by Dowex-1-Formate method. d. Equilibrium constant, Keq=98.9. Diamonds denote data from 1.5 mM runs while data from 0.15 mM runs are depicted by squares.
a) Biogel P2 chromatography: A Biogel P2 column (Fine Mesh; 1.0×116.0 cm) was used with 0.1 M pyridine acetate (pH5.4) as the eluent at room temperature. […] Fractions of 1.0 ml were collected. The bound material was then eluted with 0.5M GlcNAc or 0.2M Gal in the same buffer. […] Calculation of equilibrium constant, Keq: Equilibrium constant was calculated for selected reversible bimolecular reactions that are denoted by:
[formula] Here, [9-^3H]D* denotes the radiolabeled donor and D′ is the donor after removal of sialic acid. Similarly, A and [9-^3H]A* denote the acceptor before and after incorporation of NeuAc. In each run, unreacted [9-^3H]D* and product [9-^3H] A* are measured using radioactivity measurements. The equilibrium constant (Keq=kreverse/kforward, dimensionless units) are then determined using the following equation, where terms in square brackets denote concentrations:
[formula] [D0] and [A0] are initial donor and acceptor concentrations. A plot of [D*]/([D0]−[D*]) versus [A*]/([A0]−[A*]) yields Keq from slope data. Keq<1 implies that the forward reaction is favored and the reaction proceeds to the right side to form [9-^3H]A* efficiently. Liquid Chromatography Coupled with Tandem Mass Spectrometry (LC/MS/MS)
Similar results were observed upon increasing concentrations of 5′-CMP when [9-^3H]NeuAcα2,3Galβ1,3(4-FGlcNAcβ1,6) GalNAcα-O-Bn [9-^3H[2]] was donor (FIG. 2a, b). The concentration of 5′-CMP that mediated half-maximal transfer of [9-^3H]NeuAc was 80 μM. The bimolecular equilibrium constant (Keq) for this reaction was 0.35 (dimensionless units, Table I). Indeed, the Keq varied depending on the donor and it was 98.9 when the donor was based on the globo glycolipid, [9-^3H]NeuAcα2,3Galβ1,3GalNAcβ1,3 Gala-O-Me [[9-^3H] [3]] (FIG. 2c, d). Upon comparing and [3], it is apparent that reverse sialylation proceeds more effectively in the case of [2]. To further confirm the above estimates of Keq for core-2 based structures, we also calculated this parameter for our previously published data where [9-^3H]CMP-NeuAc was donor and mucin core-2 tetrasaccharide Galβ1,4GlcNAcβ1,6(Galβ1,3)GalNAcα-O-Bn was acceptor. In this case, Keq measured with respect to the rate of mucin core-2 sialylation was 5.55 (data not shown), which translates to a reverse sialylation Keq of 0.18.

Nc1ccn([C@@H]2O[C@H](COP(=O)(O)O)[C@@H](O)[C@H]2O)c(=O)n1 [5′-CMP, Cytidine 5′-monophosphate]
EC50: 80 µM
